These results are taken from patent publication US20260207563A1, “UREA COMPOUNDS AS ACTIVATORS OF POTASSIUM CHANNELS KV7.2/7.3 USEFUL IN THE TREATMENT OF CNS AND PNS DISORDERS” (ANGELINI PHARMA S.P.A., priority 2022, published 2026).

Molecules are shown by their SMILES.

In this test the target is T1, heteromeric KV7.2/KV7.3 channels (KCNQ2, KCNQ3) (Homo sapiens, UniProt O43525+O43526).
T1 construct: expressed in transfected cells; host or cells: CHO-K1
The test is described as follows: Automated patch-clamp (Sophion Qube 384) potency assay against KV7.2/KV7.3 channels. The test is classed as cell-based. The following applies: CHO-K1/Kv7.2/Kv7.3 cells; for EC50: EC50 from concentration-response of shift in Vhalf, 10 concentrations up to 30 μM, read-out: Kv7.2/7.3 EC50; for Kv7.2/7.3 ΔV1/2: maximal shift in the Vhalf from the top of the curve. The source says: Assessment of In Vitro Potency Against KV7.2/KV7.3 Channels
An automated patch-clamp assay on the Sophion Qube 384 was developed for potency testing to identify small molecule activators of heteromeric KV7.2/KV7.3 channels (KCNQ2, Uniprot ID 043526; KCNQ3, Uniprot 043525).
The cell line used was a stably transfected CHO-K1 cell line with constitutive KV7.2/KV7.3 expression.
CHO-K1/Kv7.2/Kv7.3 cells were maintained in the following culture media: • DMEM/F-12 with GlutaMAX™ (Gibco 31331-028), • 10% Fetal clone 2 serum (Perbio Science SH30066.03), • 1 mg/ml Geneticin™ selective antibiotic (G418, Invitrogen 1013027), and • 5 μg/ml BlasticidinS HCl (Invivogen Ant-bl-5).
On the day of the experiment, cells were resuspended in serum free media, counted and diluted to a final concentration of 3.5×10^6 cells per ml of media.
Cells were then placed onto the Sophion Qube 384 and rested for a minimum of 1 hour.
The following solutions were used for recording: • extracellular solution (in mM): 145 NaCl, 4 KCl, 1 MgCl2, 2 CaCl2), 10 HEPES, 10 glucose, pH 7.4, 315-320 mOsm. • intracellular solution (in mM): 120 KCl, 5.74 CaCl2), 1.75 MgCl2, 10 EGTA, 10 HEPES, 5 Na2ATP, pH 7.2, adjusted to 315 mOsm with sucrose.
After establishing the whole-cell configuration, cells were held at −80 mV throughout the experiment. A current-voltage (I-V) protocol stepping from −100 to +20 mV for 1 second was applied to measure Kv7.2/Kv7.3 currents, each step was followed by a 200 ms pulse to 0 mV to measure the tail currents. From the I-V protocol a Boltzmann fit was applied to generate activation curves. Data were sampled at 25 kHz and filtered at 5 kHz (Bessel). Data were produced using multihole QChips. The I-V protocol was applied several times to establish the response in control conditions (typically 0.3% DMSO) and in the presence of the test compound.
Data were reviewed in Sophion Analyser version 6.5.2 (Sophion Bioscience) for recording quality and filters were applied to remove any failed wells. Leak subtraction was applied to all recordings. Data filters for multihole QChips were typically: seal resistance>4 MΩ, capacitance >20 pF, baseline VHalf between 0 to −40 mV, baseline holding current between −2 to 2 nA, baseline steady state current at 20 mV >4 nA unless otherwise stated.
Analysis of Data for Assessment of Potency
10 concentrations of test compounds were applied to individual wells in quadruplicate to assess potency as a 1 in 3 dilution series from the maximal concentration of 30 μM. The average shift in the voltage for half activation (Vhalf) for each concentration was used to generate concentration-response curves fitted with a 4-parameter logistic model to estimate the EC50 from the point of inflection of the curve and the maximal shift in the Vhalf from the top of the curve.
The lower the EC50 value, the higher the potency of the analyzed compound. The selectivity criteria is assigned on the basis of the maximal shift in the Vhalf at 30 μM. […] In Table 3, ND means that selectivity was not determined.
On the technique in general: In patch-clamp work, channel activity is measured electrically.

For the compound `COc1cccc2c1CCC[C@H]2NC(=O)NCc1ccnc(OCC(F)(F)F)c1` [Compound 183], the EC50 is 2.49 µM and the “Kv7.2/7.3 ΔV1/2” value is 43.65 mV.
For `O=C(NCc1ccnc(OCC(F)(F)F)c1)N[C@@H]1COc2c(F)cccc21` [Compound 199], in that order: 1.82 µM and 36.36 mV.
For `O=C(NCc1ccnc(OCC(F)(F)F)c1)N[C@@H]1CCO[C@H](c2ccc(F)cc2)C1` [Compound 245], in that order: 2.19 µM and 46.39 mV.
On to `O=C(NCc1ccnc(OCC(F)(F)F)c1)N[C@@H]1CCC[C@H]1c1ccc(F)cc1` [Compound 188], for which the EC50 turned out to be 0.47 µM and the “Kv7.2/7.3 ΔV1/2” value worked out at 28.3 mV.
For `O=C(NCc1ccnc(OCC(F)(F)F)c1)N[C@@H]1COc2cc(OC(F)(F)F)ccc21` [Compound 249], in that order: 3.42 µM and 26.44 mV.
`O=C(NCCC1(C(F)(F)F)CC1)NCc1ccnc(OCC2CC2(F)F)c1` (stereo not drawn) [Compound 250]: the EC50 was found to be 2.58 µM and the “Kv7.2/7.3 ΔV1/2” value was 21.04 mV.
In the case of `O=C(NCc1ccnc(OCC(F)(F)F)c1)N[C@@H]1COc2ccccc2C1` [Compound 186], the EC50 was 0.29 µM and the “Kv7.2/7.3 ΔV1/2” value worked out at 34.07 mV.
For `O=C(NCc1ccnc(OCC(F)(F)F)c1)N[C@@H]1CCc2sccc21` [Compound 172], in that order: 1.98 µM and 55.13 mV.
Taken in the same sequence, the figures for `O=C(NCc1ccnc(OCC(F)(F)F)c1)N[C@H](C1CC1)C(F)(F)F` [Compound 213] were 0.68 µM and 31.5 mV.
For the compound `COc1ccc2c(c1)CCC[C@H]2NC(=O)NCc1ccnc(OCC(F)(F)F)c1` [Compound 177], the EC50 came out at 2.28 µM and the “Kv7.2/7.3 ΔV1/2” value is on record as 54.8 mV.
For `COc1ccc2c(c1)CCC[C@@H]2NC(=O)NCc1ccnc(OCC(F)(F)F)c1` [Compound 178], in that order: 8.11 µM and 27.73 mV.
For `COc1ccc2c(c1)[C@H](NC(=O)NCc1cc(O[C@H](C)C(F)(F)F)ncn1)CCO2` [Compound 209], in that order: 9.7 µM and 37.49 mV.
As for `O=C(NCc1ccnc(OCC(F)(F)F)c1)N[C@@H]1CCOc2ccc(F)cc21` [Compound 170], the EC50 amounted to 1.54 µM and the “Kv7.2/7.3 ΔV1/2” value was 42.82 mV.
Taken in the same sequence, the figures for `C[C@@H](Oc1cc(CNC(=O)NCC23CC(F)(C2)C3)ncn1)C(F)(F)F` [Compound 244] were 7.59 µM and 26.21 mV.
For `Cc1cnc(COc2cc(CNC(=O)NCCC3(C(F)(F)F)CC3)ccn2)o1` [Compound 247], in that order: 5.05 µM and 24.56 mV.
Taken in the same sequence, the figures for `O=C(NCc1ccnc(OCC(F)(F)F)c1)N[C@@H]1COC[C@H]1c1ccc(F)cc1` [Compound 229] were 12.7 µM and 76.14 mV.
Consider `O=C(NCc1ccnc(OCC(F)(F)F)c1)N[C@@H]1CCO[C@@H](c2ccccc2)C1` [Compound 195], for which the EC50 was 6.67 µM and the “Kv7.2/7.3 ΔV1/2” value is given as 39.68 mV.
For `O=C(NCc1ccnc(OCC(F)(F)F)n1)N[C@@H]1CCc2ccc(F)cc21` [Compound 167], in that order: 10.2 µM and 20.68 mV.
As for `C#CCOc1cc(CNC(=O)N[C@@H]2CCCc3c(F)cccc32)ccn1` [Compound 217], the EC50 was 1.76 µM and the “Kv7.2/7.3 ΔV1/2” value is listed as 29.44 mV.
For `Cc1cccc2c1OCC[C@@H]2NC(=O)NCc1ccnc(OCC(F)(F)F)c1` [Compound 185], in that order: 5.39 µM and 22.68 mV.
Taken in the same sequence, the figures for `C[C@@H](Oc1cc(CNC(=O)N[C@@H]2CCOc3ccc(F)cc32)ncn1)C(F)(F)F` [Compound 206] were 6.78 µM and 33.98 mV.
`CO[C@@H]1CCOc2c(NC(=O)NCc3ccnc(OCC(F)(F)F)c3)cccc21` [Compound 203]: the EC50 was found to be 2.87 µM and the “Kv7.2/7.3 ΔV1/2” value is listed as 20.92 mV.
In the case of `O=C(NCc1ccc(OC(F)(F)F)cc1)NCc1ccnc(OCC(F)(F)F)c1` [Compound 211], the EC50 amounted to 3.13 µM and the “Kv7.2/7.3 ΔV1/2” value worked out at 22.62 mV.
Consider `COc1ccccc1N1CC[C@@H](NC(=O)NCc2ccnc(OCC(F)(F)F)c2)C1` [Compound 202], for which the EC50 turned out to be 4.34 µM and the “Kv7.2/7.3 ΔV1/2” value was 26.02 mV.
For `O=C(NCc1ccnc(OCC(F)(F)F)c1)N[C@@H]1CCc2c(F)cc(F)cc21` [Compound 176], in that order: 1.09 µM and 40.89 mV.
For `O=C(NCc1ccnc(OCC(F)(F)F)c1)N[C@@H]1COC[C@H]1Oc1ccc(F)cc1` [Compound 234], in that order: 5.26 µM and 27.37 mV.
Taken in the same sequence, the figures for `O=C(NCc1ccnc(OCC(F)(F)F)c1)N[C@H]1COc2ccccc2C1` [Compound 187] were 2.33 µM and 21.99 mV.
In the case of `COc1cccc(N2C[C@H](NC(=O)NCc3ccnc(OCC(F)(F)F)c3)C(F)(F)C2)c1` [Compound 241], the EC50 was 3.32 µM and the “Kv7.2/7.3 ΔV1/2” value worked out at 36.71 mV.
In the case of `O=C(NCc1ccnc(OCC(F)(F)F)c1)N[C@H]1CCOc2cccc(F)c21` [Compound 189], the EC50 was found to be 2.72 µM and the “Kv7.2/7.3 ΔV1/2” value was found to be 32.95 mV.
Taken in the same sequence, the figures for `O=C(NCc1ccnc(OCC(F)(F)F)n1)N[C@@H]1CCCc2ccccc21` [Compound 180] were 5.83 µM and 24.71 mV.
As for `COc1ccc2c(c1)C[C@H](NC(=O)NCc1ccnc(OCC(F)(F)F)c1)CC2` [Compound 190], the EC50 stood at 0.82 µM and the “Kv7.2/7.3 ΔV1/2” value stood at 20.58 mV.
For `O=C(NCc1ccnc(OCC(F)(F)F)c1)N[C@@H]1CCCc2cc(F)ccc21` [Compound 191], in that order: 1.17 µM and 46.54 mV.
With `Cc1cccc2c1[C@H](NC(=O)NCc1ccnc(OCC(F)(F)F)c1)CC2` [Compound 168], the EC50 was 2.24 µM and the “Kv7.2/7.3 ΔV1/2” value is 37.25 mV.
`C[C@@H](Oc1cc(CNC(=O)N[C@@H]2CCOc3cc(F)ccc32)ncn1)C(F)(F)F` [Compound 225]: the EC50 is 6.41 µM and the “Kv7.2/7.3 ΔV1/2” value turned out to be 42.13 mV.
For `CC1(C)C[C@@H](NC(=O)NCc2ccnc(OCC(F)(F)F)c2)c2ccccc21` [Compound 192], in that order: 1.69 µM and 47.09 mV.
For `O=C(NCc1ccnc(OCC(F)(F)F)c1)N[C@@H](C1CC1)C(F)(F)F` [Compound 212], in that order: 1.49 µM and 41.94 mV.
Taken in the same sequence, the figures for `O=C(NCc1ccnc(OCC(F)(F)F)c1)NC1(C(F)(F)F)COC1` [Compound 218] were 8 µM and 21.41 mV.
Take `O=C(NCc1ccnc(OCC(F)(F)F)c1)N[C@H]1COC[C@@H]1c1ccc(F)cc1` [Compound 230]: the EC50 came out at 1.77 µM and the “Kv7.2/7.3 ΔV1/2” value came out at 20.02 mV.
On to `CC1(C)C[C@H](NC(=O)NCc2ccnc(OCC(F)(F)F)c2)c2ccccc21` [Compound 193], for which the EC50 worked out at 0.52 µM and the “Kv7.2/7.3 ΔV1/2” value came out at 23.15 mV.
Taken in the same sequence, the figures for `O=C(NCc1ccnc(OCC(F)(F)F)c1)N[C@@H]1CC[C@H](c2ccccc2)C1` [Compound 196] were 1.54 µM and 56.75 mV.
Turning to `O=C(NCc1ccnc(OCC(F)(F)F)c1)N[C@@H]1CCN(CC(F)(F)F)C1` [Compound 214], the EC50 is 8.95 µM and the “Kv7.2/7.3 ΔV1/2” value came to 30.24 mV.
As for `C[C@@H](Oc1cc(CNC(=O)N[C@@H]2COc3ccccc32)ncn1)C(F)(F)F` [Compound 207], the EC50 came to 10.2 µM and the “Kv7.2/7.3 ΔV1/2” value worked out at 23.90 mV.
